Ki data for three compounds are collected here from BindingDB's records for doi:10.1016/s0960-894x(99)00217-6 (Palatin Technologies, 1999).

The target of the experiment is T1, Neutrophil elastase (Homo sapiens, UniProt P08246).
T1 sequence (P08246 whole entry): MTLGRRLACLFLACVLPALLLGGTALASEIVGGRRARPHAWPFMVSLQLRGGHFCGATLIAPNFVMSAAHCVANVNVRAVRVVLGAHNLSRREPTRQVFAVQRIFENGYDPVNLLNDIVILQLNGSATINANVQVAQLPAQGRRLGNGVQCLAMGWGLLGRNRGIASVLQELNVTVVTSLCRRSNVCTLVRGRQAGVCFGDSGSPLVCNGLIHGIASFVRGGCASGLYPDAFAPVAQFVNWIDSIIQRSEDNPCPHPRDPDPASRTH
Kind of experiment: ChEBML_64294. From the text:
Kinetic constant for human neutrophil elastase
The compound `CC[C@@H](C)/C(NS(=O)(=O)c1ccc(C)cc1)=C(\O)[N]1[C@@H](CCCCNC(=O)C23CC4CC(CC(C4)C2)C3)C(=O)[N]2[C@H](C(=O)N[C@H](C(=O)O)C(C)C)C[S][Re]21=[O]` (stereo partly drawn) came in with an inhibition constant (Ki) of 36.7 µM.
On to `CC[C@@H](C)/C(NCc1ccccc1)=C(\O)[N]1[C@@H](CCCCNC(=O)C23CC4CC(CC(C4)C2)C3)C(=O)[N]2[C@H](C(=O)N[C@H](C(N)=O)C(C)C)C[S][Re]21=[O]` (stereo partly drawn), for which affinity was put at a Ki of 194 µM.
`CC[C@@H](C)/C(NS(=O)(=O)c1ccc(C)cc1)=C(\O)[N]1[C@@H](CCCCNC(=O)C23CC4CC(CC(C4)C2)C3)C(=O)[N]2[C@H](C(=O)N[C@H](C(N)=O)C(C)C)C[S][Re]21=[O]` (stereo partly drawn) returned a Ki of 133 µM.
